From the CheMixHub viscosity set
Values joined by “and” are separate entries in the source; they are usually repeats but may differ in a detail not shown here. Equal values may be shown once.

Experiment: xn = mol fraction of the nth substance listed

CC1COC(=O)O1 (stereo unspecified) + CS(C)=O
308.15 K, 101 kPa
Details | viscosity [mPa·s]
x2 = 0.0506 | 2.025
x2 = 0.1139 | 1.973
x2 = 0.2014 | 1.907
x2 = 0.2976 | 1.842
x2 = 0.382 | 1.794
x2 = 0.4759 | 1.746
x2 = 0.5376 | 1.719
x2 = 0.6343 | 1.684
x2 = 0.7176 | 1.659
x2 = 0.7898 | 1.645
x2 = 0.8643 | 1.64
x2 = 0.9376 | 1.639

Cc1ccc(S(=O)(=O)O)cc1 + C[N+](C)(C)Cc1ccccc1.[Cl-]
Details | viscosity [mPa·s]
298 K, 101 kPa, x2 = 0.3 | 12850

CC1COC(=O)O1 (stereo unspecified) + Cc1ccc(C)cc1
viscosity [mPa·s], 101 kPa
Details | 298.15 K | 308.15 K
x1 = 0.0227 | 0.6155 | 0.5443
x1 = 0.0397 | 0.6246 | 0.5534
x1 = 0.0573 | 0.6333 | 0.5634
x1 = 0.0816 | – | 0.5779
x1 = 0.098 | 0.6527 | 0.5884
x1 = 0.209 | 0.728 | 0.6727
x1 = 0.3029 | 0.8062 | 0.7639
x1 = 0.3993 | 0.9317 | 0.8783
x1 = 0.5028 | 1.116 | 1.026
x1 = 0.5978 | 1.316 | 1.184
x1 = 0.7068 | 1.584 | 1.394
x1 = 0.8012 | 1.856 | 1.599
x1 = 0.8996 | 2.149 | 1.835

c1ccc2ccccc2c1 + Cc1ccc(C)cc1
viscosity [mPa·s], 101.3 kPa
Details | x1 = 0.00437 | x1 = 0.00869 | x1 = 0.01249 | x1 = 0.01685 | x1 = 0.01712 | x1 = 0.01715 | x1 = 0.01815 | x1 = 0.02139 | x1 = 0.02569 | x1 = 0.02979
293.15 K | 0.6371 | 0.6386 | 0.6414 | – | – | – | 0.6438 | 0.6483 | 0.65 | 0.6534
298.15 K | 0.5968 | 0.5992 | 0.6012 | – | – | 0.6045 | – | 0.6076 | 0.6102 | 0.6125
313.15 K | 0.5333 | 0.5352 | 0.5363 | – | 0.5405 | – | – | 0.5431 | 0.5447 | 0.5469
323.15 K | 0.476 | 0.4777 | 0.4789 | 0.4818 | – | – | – | 0.4848 | 0.4862 | 0.4879

CC(C)=O + Cc1ccccc1
Details | viscosity
293.15 K, 101.32 kPa, x2 = 0.072 | 0.3349 mPa·s
293.15 K, 101.32 kPa, x2 = 0.148 | 0.3525 mPa·s
293.15 K, 101.32 kPa, x2 = 0.229 | 0.374 mPa·s
293.15 K, 101.32 kPa, x2 = 0.317 | 0.3966 mPa·s
293.15 K, 101.32 kPa, x2 = 0.409 | 0.42 mPa·s
293.15 K, 101.32 kPa, x2 = 0.509 | 0.4506 mPa·s
293.15 K, 101.32 kPa, x2 = 0.617 | 0.4775 mPa·s
293.15 K, 101.32 kPa, x2 = 0.735 | 0.5095 mPa·s
293.15 K, 101.32 kPa, x2 = 0.862 | 0.5472 mPa·s
298.15 K, 101 kPa, x1 = 0.0233 | 0.548 mPa·s
298.15 K, 101 kPa, x1 = 0.0652 | 0.537 mPa·s
298.15 K, 101 kPa, x1 = 0.1349 | 0.518 mPa·s
298.15 K, 101 kPa, x1 = 0.2009 | 0.499 mPa·s
298.15 K, 101 kPa, x1 = 0.301 | 0.475 mPa·s
298.15 K, 101 kPa, x1 = 0.3387 | 0.465 mPa·s
298.15 K, 101 kPa, x1 = 0.412 | 0.445 mPa·s
298.15 K, 101 kPa, x1 = 0.5133 | 0.419 mPa·s
298.15 K, 101 kPa, x1 = 0.515 | 0.418 mPa·s
298.15 K, 101 kPa, x1 = 0.6017 | 0.396 mPa·s
298.15 K, 101 kPa, x1 = 0.6968 | 0.372 mPa·s
298.15 K, 101 kPa, x1 = 0.7979 | 0.349 mPa·s
298.15 K, 101 kPa, x1 = 0.8969 | 0.325 mPa·s
298.15 K, 101 kPa, x2 = 0.0702 | 0.3418 mPa·s and 0.3418 mPa·s
298.15 K, 101 kPa, x2 = 0.1468 | 0.3759 mPa·s and 0.3759 mPa·s
298.15 K, 101 kPa, x2 = 0.2269 | 0.4076 mPa·s and 0.4076 mPa·s
298.15 K, 101 kPa, x2 = 0.3135 | 0.4383 mPa·s and 0.4383 mPa·s
298.15 K, 101 kPa, x2 = 0.4051 | 0.4662 mPa·s and 0.4662 mPa·s
298.15 K, 101 kPa, x2 = 0.5072 | 0.4893 mPa·s and 0.4893 mPa·s
298.15 K, 101 kPa, x2 = 0.616 | 0.5092 mPa·s and 0.5092 mPa·s
298.15 K, 101 kPa, x2 = 0.7355 | 0.5293 mPa·s and 0.5293 mPa·s
298.15 K, 101 kPa, x2 = 0.8629 | 0.5462 mPa·s and 0.5462 mPa·s
298.15 K, 101.32 kPa, x2 = 0.073 | 0.3172 mPa·s
298.15 K, 101.32 kPa, x2 = 0.148 | 0.3344 mPa·s
298.15 K, 101.32 kPa, x2 = 0.229 | 0.353 mPa·s
298.15 K, 101.32 kPa, x2 = 0.317 | 0.3764 mPa·s
298.15 K, 101.32 kPa, x2 = 0.41 | 0.3994 mPa·s
298.15 K, 101.32 kPa, x2 = 0.509 | 0.4236 mPa·s
298.15 K, 101.32 kPa, x2 = 0.618 | 0.4521 mPa·s
298.15 K, 101.32 kPa, x2 = 0.735 | 0.4807 mPa·s
298.15 K, 101.32 kPa, x2 = 0.862 | 0.5138 mPa·s
303.15 K, 101 kPa, x2 = 0.0702 | 0.3218 mPa·s and 0.3218 mPa·s
303.15 K, 101 kPa, x2 = 0.0929 | 0.3192 mPa·s
303.15 K, 101 kPa, x2 = 0.1468 | 0.3527 mPa·s and 0.3527 mPa·s
303.15 K, 101 kPa, x2 = 0.2269 | 0.381 mPa·s and 0.381 mPa·s
303.15 K, 101 kPa, x2 = 0.3135 | 0.4098 mPa·s and 0.4098 mPa·s
303.15 K, 101 kPa, x2 = 0.3674 | 0.4169 mPa·s
303.15 K, 101 kPa, x2 = 0.4051 | 0.4358 mPa·s and 0.4358 mPa·s
303.15 K, 101 kPa, x2 = 0.5072 | 0.4553 mPa·s and 0.4553 mPa·s
303.15 K, 101 kPa, x2 = 0.616 | 0.475 mPa·s and 0.475 mPa·s
303.15 K, 101 kPa, x2 = 0.7355 | 0.4947 mPa·s and 0.4947 mPa·s
303.15 K, 101 kPa, x2 = 0.8102 | 0.4984 mPa·s
303.15 K, 101 kPa, x2 = 0.8629 | 0.5144 mPa·s and 0.5144 mPa·s
308.15 K, 101 kPa, x2 = 0.0702 | 0.3021 mPa·s and 0.3021 mPa·s
308.15 K, 101 kPa, x2 = 0.1468 | 0.3267 mPa·s and 0.3267 mPa·s
308.15 K, 101 kPa, x2 = 0.2269 | 0.3517 mPa·s and 0.3517 mPa·s
308.15 K, 101 kPa, x2 = 0.3135 | 0.3785 mPa·s and 0.3785 mPa·s
308.15 K, 101 kPa, x2 = 0.4051 | 0.404 mPa·s and 0.404 mPa·s
308.15 K, 101 kPa, x2 = 0.5072 | 0.425 mPa·s and 0.425 mPa·s
308.15 K, 101 kPa, x2 = 0.616 | 0.4443 mPa·s and 0.4443 mPa·s
308.15 K, 101 kPa, x2 = 0.7355 | 0.4638 mPa·s and 0.4638 mPa·s
308.15 K, 101 kPa, x2 = 0.8629 | 0.4848 mPa·s and 0.4848 mPa·s
308.15 K, 101.32 kPa, x2 = 0.073 | 0.2891 mPa·s
308.15 K, 101.32 kPa, x2 = 0.149 | 0.3036 mPa·s
308.15 K, 101.32 kPa, x2 = 0.23 | 0.3204 mPa·s
308.15 K, 101.32 kPa, x2 = 0.318 | 0.3407 mPa·s
308.15 K, 101.32 kPa, x2 = 0.411 | 0.3615 mPa·s
308.15 K, 101.32 kPa, x2 = 0.51 | 0.3829 mPa·s
308.15 K, 101.32 kPa, x2 = 0.619 | 0.4072 mPa·s
308.15 K, 101.32 kPa, x2 = 0.736 | 0.4335 mPa·s
308.15 K, 101.32 kPa, x2 = 0.862 | 0.463 mPa·s
313.15 K, 101 kPa, x2 = 0.0929 | 0.2858 mPa·s
313.15 K, 101 kPa, x2 = 0.3674 | 0.3952 mPa·s
313.15 K, 101 kPa, x2 = 0.8102 | 0.4622 mPa·s
318.15 K, 101.32 kPa, x2 = 0.073 | 0.2628 mPa·s
318.15 K, 101.32 kPa, x2 = 0.149 | 0.2767 mPa·s
318.15 K, 101.32 kPa, x2 = 0.23 | 0.2923 mPa·s
318.15 K, 101.32 kPa, x2 = 0.319 | 0.3081 mPa·s
318.15 K, 101.32 kPa, x2 = 0.412 | 0.3264 mPa·s
318.15 K, 101.32 kPa, x2 = 0.511 | 0.347 mPa·s
318.15 K, 101.32 kPa, x2 = 0.61 | 0.367 mPa·s
318.15 K, 101.32 kPa, x2 = 0.737 | 0.3916 mPa·s
318.15 K, 101.32 kPa, x2 = 0.863 | 0.4162 mPa·s
323.15 K, 101 kPa, x2 = 0.0929 | 0.2564 mPa·s
323.15 K, 101 kPa, x2 = 0.3674 | 0.3538 mPa·s
323.15 K, 101 kPa, x2 = 0.8102 | 0.4467 mPa·s
